Test results published in US4038407A, “Benzisothiazoline-1,1-dioxide derivatives, compositions and methods” (Boehringer Ingelheim GmbH, priority 1975, dated 1977).
Counter-ions that a name gives are not always drawn.

Assays:
[1] = tested on: heart rate of guinea pigs under urethane anesthesia; experiment: Activity on heart frequency of anesthetized guinea pigs; format: in vivo, guinea pig; conditions: ECG
Protocol: 1. Activity on heart frequency of anesthetized guinea pigs:
The heart rate of guinea pigs under urethane anesthesia was registered by an electrocardiogram. The test compound was administered intravenously at increasing dosage increments between 0.5 and 20 mg/kg.

[2] = tested on: isolated, spontaneously beating auricles of guinea pigs; experiment: Effect on heart rate in the isolated auricle of the guinea pig; format: cell-based; conditions: Cavia porcellus; 10^-5 g/ml in organ bath, tyrode solution, 30° C., average of 5 auricles; read-out: Change in heart rate in %
Protocol: 2. Effect on heart rate in the isolated auricle of the guinea pig:
The effect on isolated, spontaneously beating auricles of guinea pigs of male and female sex having a body weight between 300 and 400 gm were investigated in an organ bath filled with tyrode solution. The nutritive solution was infused with carbogen (95% of O2 and 5% of CO2) and maintained at 30° C. The contractions were registered isometrically with a Statham-Force-transducer on a Grass-polygraph. The test compound was added to the organ bath so that the final concentration was 10^-^5 g/ml in each case. 5 auricles were used for each solution.
The following table gives the percentage decrease in the heart rate from an average of 5 auricles at a test compound concentration of 10^-^5 g/ml).

Acute toxicity in mice = conditions: mouse, in vivo, observation time 14 days
Protocol: The acute toxicity of the compounds in question was determined in mice (observation time: 14 days) after oral or intravenous application. The LD50 was calculated from the percentage of animals which died after different doses within the observation time (see J. Pharmacol. exp. Therap. 96, 99 (1949)): […]

Row | Compound | Percentage change in heart rate ([1]; 0.5 mg/kg i.v.) | Percentage change in heart rate ([1]; 1.0 mg/kg i.v.) | Percentage change in heart rate ([1]; 2.0 mg/kg i.v.) | Percentage change in heart rate ([1]; 5.0 mg/kg i.v.) | Percentage change in heart rate ([1]; 10.0 mg/kg i.v.) | Percentage change in heart rate ([1]; 20.0 mg/kg i.v.) | inhibition at 10 µg/mL [2] | LD50 at 336 h (Acute toxicity in mice; iv) | LD50 at 336 h (Acute toxicity in mice; po)
1 | COc1ccc(CCN(C)CCCN2Cc3cc(OC)c(OC)cc3C2=O)cc1OC [A, 5,6-Dimethoxy-2N-(3-[α-(3,4-dimethoxy)-phenylethyl-methylamino]-propyl)-phthalimidine hydrochloride] | -23.5% | -36.1% | -47.2% | -51.6% | -59.1% | -67.2% | 52% | 98 mg/kg | 1570 mg/kg
2 | COc1ccc(CCN(C)CCCN2Cc3cc(OC)c(OC)cc3S2(=O)=O)cc1OC [B, 5,6-Dimethoxy-2-(3-[α-(3,4-dimethoxy)-phenylethyl-methylamino]-propyl)-1,2-benzisothiazoline-1,1-dioxide hydrochloride] | -9.8% | -20.0% | -27.4% | -37.6% | -46.9% | -53.9% | 60% | 100 mg/kg | –
3 | COc1cc2c(cc1OC)C(=O)N(CCCN(C)CCc1ccc3c(c1)OCO3)C2 [D, 5,6-Dimethoxy-2N-(3-[α-(3,4-methylenedioxy)-phenylethylmethylamino]-propyl)-phthalimidine hydrochloride] | – | – | – | – | – | – | 51% | – | –
4 | CN(CCCN1Cc2cc3c(cc2C1=O)OCCO3)CCc1ccc2c(c1)OCO2 [E, 5,6-Ethylenedioxy-2N-(3-[α-(3,4-methylenedioxy)-phenylethyl-methylamino]-propyl)-phthalimidine hydrochloride] | – | – | – | – | – | – | 48% | – | –
